What all share (format): cell-based
The test system of assay [1] is Flo-1 esophageal carcinoma cells. Briefly: Synergy of MBZ with chemotherapeutic agents (Chou-Talalay CI, Cell Titer Glo). To be noted: in combination with MBZ, 72 hour incubation. A general note: In ATP-based viability assays light output follows the ATP content of the culture.
Procedure: (§1) For in vitro experiments, cells were plated in triplicate and treated with a range of concentrations of MBZ and relevant chemotherapeutic agents in a complete Latin square.
(§2) Cells were plated in triplicate and treated with a range of 5 concentrations of MBZ in combination with 5 concentrations of chemotherapeutic agents in a complete Latin square. Following a 72 hour incubation, cell viability was determined using Cell Titer Glo.
Assay [2] concerns STC-1 carcinoid tumor cell line. The description is as above. To be noted: in combination with MBZ, 72 hour incubation.
Procedure: as §1
(§3) Cells were plated in triplicate and treated with a range of 5 concentrations of MBZ in combination with 5 concentrations of chemotherapeutic agents in a complete Latin square. Following a 72 hour incubation, cell viability was determined using Cell Titer Glo. The Combination index (CI) was determined based on the method described by Chou and Talalay (2010) with a CI value less than 0.9 indicating synergy.
Assay [3] relates to CCC-5 cholangiocarcinoma cells. Described as above. Conditions: in combination with MBZ, 72 hour incubation.
Procedure: as §1, §2
The subject of assay [4] is Kato-III gastric carcinoma cells. The description is as above. Conditions: in combination with MBZ, 72 hour incubation.
Procedure: as §1, §2
Assay [5] relates to Colo-205 colorectal carcinoma cells. Described as above. To be noted: in combination with MBZ, 72 hour incubation.
Procedure: as §1, §2
Assay [6] deals with Hs766t pancreatic carcinoma cells. The assay is described as above. To be noted: in combination with MBZ, 72 hour incubation.
Procedure: as §3
Assay [7] has as its system SNU16 gastric carcinoma cells. Briefly: Synergy of MBZ or HA-PLGA-MBZ with chemotherapeutic agents (Chou-Talalay CI, Cell Titer Glo). To be noted: in combination with MBZ; SNU16; 72 hour incubation.
Procedure: as §1, §2
(§4) In table 22 below, cells were plated in triplicate and treated with a range of 5 concentrations of MBZ or HA-PLGA-MBZ nanoparticles containing a molar equivalent of MBZ, and 5 concentrations of relevant chemotherapeutic agents in a complete Latin square. Combination indexes (CI) were determined based on the method described by Chou-Talalay with a CI value less than 0.9 indicating synergy. […] Numbers in parentheses represent the range of synergistic CI values for each cell line and drug combination.
For assay [8], the system named is HCT116 colorectal carcinoma cells. Briefly: Synergy of MBZ with chemotherapeutic agents (Chou-Talalay CI, Cell Titer Glo). To be noted: in combination with MBZ, 72 hour incubation.
Procedure: as §1, §2
The test system of assay [9] is BxPC-3 pancreatic carcinoma cells. Described as above. To be noted: in combination with MBZ, 72 hour incubation.
Procedure: as §1, §2
The subject of assay [10] is CHP-212 neuroblastoma cells. Briefly: Synergy of MBZ or HA-PLGA-MBZ with chemotherapeutic agents (Chou-Talalay CI, Cell Titer Glo). Conditions: in combination with MBZ; CHP-212; 72 hour incubation.
Procedure: as §1, §2, §4
Assay [11] concerns PC12 pheochromocytoma/paraganglioma cell line. Described as above. To be noted: in combination with MBZ; PC12; 72 hour incubation.
Procedure: as §1, §2, §4
The test system of assay [12] is SK-LMS-1 leiomyosarcoma cells. Briefly: Synergy of MBZ with chemotherapeutic agents (Chou-Talalay CI, Cell Titer Glo). To be noted: in combination with MBZ, 72 hour incubation.
Procedure: as §3
The test system of assay [13] is COV362 ovarian carcinoma cells. Described as above. To be noted: in combination with MBZ, 72 hour incubation.
Procedure: as §1, §2
Assay [14] relates to TOV-112D ovarian carcinoma cells. The assay is described as above. To be noted: in combination with MBZ, 72 hour incubation.
Procedure: as §1, §3
In assay [15] the test system is SK-UT-1 leiomyosarcoma cells. The assay is described as above. Conditions: in combination with MBZ, 72 hour incubation.
Procedure: as §3
For assay [16], the system named is OE-33 esophageal carcinoma cells. The description is as above. To be noted: in combination with MBZ, 72 hour incubation.
Procedure: as §1, §2
The test system of assay [17] is MSTO-211H mesothelioma cells. Described as above. Conditions: in combination with MBZ, 72 hour incubation.
Procedure: as §1, §3
Assay [18] has as its system LO68 mesothelioma cells. Described as above. Conditions: in combination with MBZ, 72 hour incubation.
Procedure: as §1, §3
In assay [19] the test system is JU77 mesothelioma cells. The description is as above. Conditions: in combination with MBZ, 72 hour incubation.
Procedure: as §1, §3

Regarding `O=c1[nH]cc(F)c(=O)[nH]1` [5-FU, 5-Fluorouracil], the “CI range for the concentration pairings” value in assay [1] is given as 0.370-0.855; in assay [2], 0.458-0.850; in assay [3] it was 0.252-0.878; in [4] it was 0.073-0.558; in assay [5] it was 0.528-0.748; in assay [6] it was 0.170-0.877. Further, the figures for the “CI range for the concentration pairings” value in [7], in assay [8] and in assay [9] were 0.429-0.827, 0.285-0.860 and 0.448-0.792, respectively.
For `O=P1(N(CCCl)CCCl)NCCCO1` (centres unmarked) [Cyclophosphamide], the “CI range for the concentration pairings” value is given as 0.226-0.784 in [2], 0.569-0.860 in [10] and 0.388-0.879 in assay [11].
`CN(C)/N=N/c1[nH]cnc1C(N)=O` [Dacarbazine]: the “CI range for the concentration pairings” value in [11] was 0.246-0.785.
As for `CC(=O)O[C@@]12CO[C@@H]1C[C@H](O)[C@@]1(C)C(=O)[C@H](O)C3=C(C)[C@@H](OC(=O)[C@H](O)[C@@H](NC(=O)OC(C)(C)C)c4ccccc4)C[C@@](O)([C@@H](OC(=O)c4ccccc4)[C@H]21)C3(C)C` [Docetaxel], the “synergy with MBZ (Yes/No)” value in assay [12] and in assay [14] was “No” each time. For the same compound, the “CI range for the concentration pairings” value in assay [13] was 0.399-0.867.
`O=P1(NCCCl)OCCCN1CCCl` (centres unmarked) [Ifosamide]: the “CI range for the concentration pairings” value in assay [15] is 0.317-0.708.
For `CCc1c2c(nc3ccc(OC(=O)N4CCC(N5CCCCC5)CC4)cc13)-c1cc3c(c(=O)n1C2)COC(=O)[C@]3(O)CC` [Irinotecan], the “CI range for the concentration pairings” value is 0.439-0.871 in assay [1]; 0.502-0.819 in assay [5]; 0.635-0.871 in assay [7]; 0.545-0.793 in [8]; 0.659-0.793 in [9]; 0.589-0.757 in [16]. The “synergy with MBZ (Yes/No)” value in [4] and in [6] was “No” in each case.
For the compound `CC(=O)O[C@H]1C(=O)[C@@]2(C)[C@H]([C@H](OC(=O)c3ccccc3)[C@]3(O)C[C@H](OC(=O)[C@H](O)[C@@H](NC(=O)c4ccccc4)c4ccccc4)C(C)=C1C3(C)C)[C@]1(OC(C)=O)CO[C@@H]1C[C@@H]2O` [Paclitaxel], the “CI range for the concentration pairings” value was 0.430-0.864 in assay [1]; 0.193-0.508 in assay [4]; 0.425-0.883 in [7]; 0.341-0.845 in assay [9]; 0.318-0.889 in assay [13]; 0.367-0.839 in assay [14].
Turning to `CC[C@]1(O)C[C@H]2CN(CCc3c([nH]c4ccccc34)[C@@](C(=O)OC)(c3cc4c(cc3OC)N(C=O)[C@H]3[C@@](O)(C(=O)OC)[C@H](OC(C)=O)[C@]5(CC)C=CCN6CC[C@]43[C@@H]65)C2)C1` [Vincristine], the “CI range for the concentration pairings” value in assay [11] was 0.274-0.871.
In the case of `CCC1=C[C@@H]2CN(C1)Cc1c([nH]c3ccccc13)[C@@](C(=O)OC)(c1cc3c(cc1OC)N(C)[C@H]1[C@@](O)(C(=O)OC)[C@H](OC(C)=O)[C@]4(CC)C=CCN5CC[C@]31[C@@H]54)C2` [Vinorelbine], the “CI range for the concentration pairings” value in assay [17] is 0.087-0.885; in [18], 0.445-0.872; in assay [19], 0.325-0.799.
